Reference: patent publication US7994159B2, “c-Kit kinase inhibitor” (Eisai R&D Management Co., Ltd., priority 2003, dated 2011)
One block for each compound: values may come before it.

Columns and labels:
[1] = tested on: small cell lung cancer cell line H-526 expressing c-Kit kinase; assay: Effect on proliferation of H-526 cells stimulated by SCF (Cell Counting Kit-8); type: cell-based; settings: Homo sapiens, NCI-H526, 7th day after addition of test substance, read-out: IC50, concentration required for 50% inhibition of the cell proliferation stimulated by SCF
Experimental: H-526 cells were cultured in a 5% CO2 incubator (37° C.) using an RPMI1640 medium (Nissui Pharmaceutical Co., Ltd.) containing 10% FCS (purchased from Cell Culture Technologies). After culturing, H-526 cells were washed with PBS three times and were suspended in an RPMI1640 medium containing 0.1% BSA (Sigma Corporation) (hereinafter abbreviated as “BSA-RPMI1640”) at 1.0×10^5 cells/ml. […] On the 7th day after addition of the test substance, 20 μl of Cell Counting Kit-8 (Dojin Laboratories) was added to the well and was cultured in a 5% CO2 incubator (37° C.) for about 2 hours. After color development, the absorbance of each well was determined using a MTP-32 plate reader (Colona Electric Co., Ltd.) at a measuring wavelength of 450 nm and at a reference wavelength of 660 nm. The absorbance of each well was subtracted by the absorbance of the well without addition of SCF, and then the ratio of the absorbance of the well with addition of the test substance to the ratio of the absorbance of the well without addition of the test substance was determined. This ratio was used to calculate the concentration of the test substance required for 50% inhibition of the cell proliferation (IC50).

H-526 tumor = assay: Growth of H-526 tumor transplanted to nude mice; type: in vivo, Balb/c nu/nu mice; settings: oral, twice daily for 14 days, FIG. 2
Experimental: H-526 cells were cultured in a 5% CO2 incubator (37° C.) using an RPMI1640 medium containing 10% FCS. After the culture medium was collected, H-526 cells were washed with PBS twice and were suspended in PBS at 5.0×10^7 cells/ml. This cell suspension (0.1 ml) was transplanted to the subcutaneous parts of the right flank of 6-week female Balb/c nu/nu mice (purchased from Charles River Laboratories, Inc.). After transplantation, administration of a test substance was started at the point the tumor volume reached approximately 150 mm^3, and thus, oral administration was conducted twice daily for a period of 14 days. The test substance was suspended in a 0.5% methylcellulose solution (Wako Pure Chemical Industries Co., Ltd.) so as to give a dose of 0.1 ml/10 g body weight.
The tumor volume was measured with a caliper twice weekly during the administration period. The long and short diameters of the tumor were measured with a caliper and the tumor volume was calculated according to the equation: ½×long diameter×short diameter×short diameter. Here, the experiment was conducted in a vehicle control group of 10 animals (solvent-administered group) as well as in a test substance administered group of 5 animals.

c-Kit kinase [2] = molecular target: T1, c-Kit kinase (Homo sapiens, UniProt P10721); assay: c-Kit kinase phosphorylation by SCF stimulation in H-526 cells (immunoblot, phospho-c-kit Tyr719); type: cell-based; parameters: in the small cell lung cancer cell line H-526 expressing c-Kit kinase; host or cells: H-526 small cell lung cancer cells; settings: 1 hour test substance then 5 minutes SCF, FIG. 1
T1 sequence (P10721 26-976): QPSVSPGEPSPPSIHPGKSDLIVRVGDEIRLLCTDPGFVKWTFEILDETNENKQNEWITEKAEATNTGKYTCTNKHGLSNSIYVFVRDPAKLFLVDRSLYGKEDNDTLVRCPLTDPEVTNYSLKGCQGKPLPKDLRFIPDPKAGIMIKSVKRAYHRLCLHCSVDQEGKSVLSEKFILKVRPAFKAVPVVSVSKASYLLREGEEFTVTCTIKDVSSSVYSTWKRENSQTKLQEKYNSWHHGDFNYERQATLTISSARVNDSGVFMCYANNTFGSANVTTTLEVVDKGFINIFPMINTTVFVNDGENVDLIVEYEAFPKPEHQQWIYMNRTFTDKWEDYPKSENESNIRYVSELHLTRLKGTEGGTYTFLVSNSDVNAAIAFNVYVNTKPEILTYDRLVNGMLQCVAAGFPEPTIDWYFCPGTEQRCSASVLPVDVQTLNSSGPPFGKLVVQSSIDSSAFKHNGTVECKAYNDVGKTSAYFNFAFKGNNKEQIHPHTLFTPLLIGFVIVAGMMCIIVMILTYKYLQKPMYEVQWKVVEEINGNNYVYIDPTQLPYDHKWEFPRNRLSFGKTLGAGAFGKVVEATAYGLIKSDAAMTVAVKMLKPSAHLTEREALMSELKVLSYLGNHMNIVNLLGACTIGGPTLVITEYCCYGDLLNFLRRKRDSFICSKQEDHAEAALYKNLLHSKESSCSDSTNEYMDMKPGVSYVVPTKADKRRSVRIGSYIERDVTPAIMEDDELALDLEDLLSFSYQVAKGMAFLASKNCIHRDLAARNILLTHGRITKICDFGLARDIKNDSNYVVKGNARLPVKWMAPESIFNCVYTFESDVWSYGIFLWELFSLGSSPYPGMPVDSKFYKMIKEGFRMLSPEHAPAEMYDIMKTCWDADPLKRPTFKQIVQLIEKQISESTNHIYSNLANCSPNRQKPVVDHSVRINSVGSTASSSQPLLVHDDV
Experimental: H-526 cells were cultured in a 5% CO2 incubator (37° C.) using an RPMI1640 medium containing 10% FCS. After culturing, H-526 cells were washed with PBS three times and were suspended in a BSA-RPMI1640 medium at 5.0×10^5 cells/ml. Each 1 ml of this cell suspension was inoculated to the well of a 24-well plate and the suspension was cultured in a 5% CO2 incubator (37° C.) for 6 hours. After 6-hours culturing, 1 ml of BSA-RPMI1640 containing a diluted test substance was added to each well and culturing was carried out in a 5% CO2 incubator (37° C.) for 1 hour. […] After 5-minutes culturing, the cells were washed with PBS and 100 μl of SDS sample loading buffer was added to the cells to prepare a cell lysate sample. After the sample was heat-treated at 94° C. for 10 minutes, it was cryopreserved at -20° C. […] After electrophoresis, the sample was transferred to a PVDF membrane (Amersham Pharmacia Biotech Inc.) for 3 hours. The transferred membrane was subjected to immunoblot using a phospho-c-kit ([…]) antibody (Cell Signaling Technology Inc.) as a primary antibody and an anti-rabbit IgG, HRP-linked antibody (Cell Signaling Technology Inc.) as a secondary antibody. After the membrane was washed, it was developed with a Super Signal (Pierce Biotechnology, Inc.).

c-Kit kinase [3] = molecular target: T1, c-Kit kinase; assay: c-Kit kinase phosphorylation in H-526 tumor transplanted to nude mice (immunoblot); type: in vivo, Balb/c nu/nu mice; parameters: Compound 1 reduced phosphorylated c-Kit in tumor tissue when administered at 30 or 100 mg/kg; from tissue; host or cells: H-526 tumour grown subcutaneously in female Balb/c nu/nu mice; settings: H-526 tumor in nude mice, FIG. 3
Experimental: 0.1 ml of a H-526 cell suspension prepared at a concentration of 5.0×10^7 cells/ml, was transplanted to the subcutaneous parts of the right latus of 6-week female Balb/c nu/nu mice (purchased from Charles River Laboratories, Inc.). The animals were then divided into a vehicle control group (solvent-administered group) and a test substance administered group at the point the tumor volume reached 300-1000 mm^3: the test substance was administered to the latter group. […] After centrifugation, the supernatant was protein quantified, and a 3×SDS sample loading buffer was added to prepare a cell lysate sample. Subsequently, the cell lysate was heat-treated at 94° C. for 10 minutes and cryopreserved at -20° C. […] After electrophoresis, the sample was transferred to a PVDF membrane (Amersham Pharmacia Biotech Inc.) for 3 hours. In order to assay phosphorylated c-Kit, c-Kit and β-actin, immunoblot was performed using a phospho-c-kit ([…]) antibody (Cell Signaling Technologies, Inc.), an anti c-Kit antibody (Cell Signaling Technologies, Inc.) and an anti β-actin antibody (Sigma) as a primary antibody and an anti-rabbit IgG, HRP-linked antibody (Cell Signaling Technologies, Inc.) as a secondary antibody. After the membrane was washed, it was developed with a Super Signal (Pierce Biotechnology, Inc.).

- IC50 [1]: 214 nM
Compound: CONC(=O)c1cc2c(Oc3ccc(NC(=O)NC4CC4)c(Cl)c3)ccnc2cc1OC [Compound 3, N6-Methoxy-4-(3-chloro-4-(((cyclopropylamino)carbonyl)amino)phenoxy)-7-methoxy-6-quinolinecarboxamide]

- IC50 [1]: 12.8 nM
Compound: CCNC(=O)Nc1ccc(Oc2ccnc3cc(OC)c(C(N)=O)cc23)cc1Cl [Compound 2, 4-(3-Chloro-4-(ethylaminocarbonyl)aminophenoxy)-7-methoxy-6-quinolinecarboxamide]

- IC50 [1]: 9.36 nM
- c-Kit and β-actin in tumor tissue (c-Kit kinase [3]; 30 or 100 mg/kg): remained unchanged
- phosphorylated c-Kit in tumor tissue (c-Kit kinase [3]; 30 or 100 mg/kg): completely inhibited phosphorylation
Compound: COc1cc2nccc(Oc3ccc(NC(=O)NC4CC4)c(Cl)c3)c2cc1C(N)=O [Compound 1, 4-(3-Chloro-4-(cyclopropylaminocarbonyl)aminophenoxy)-7-methoxy-6-quinolinecarboxamide]
- growth of nude mouse transplanted H-526 tumor (tumor volume) (H-526 tumor): suppressed the growth of the nude mouse transplanted H-526 tumor in a dose-dependent manner
- suppression of c-Kit kinase phosphorylation in the presence of SCF (c-Kit kinase [2]): suppressed the c-Kit kinase phosphorylation that would take place in the presence of SCF in a concentration-dependent manner

- IC50 [1]: 56.3 nM
Compound: CCNC(=O)Nc1ccc(Oc2ccnc3cc(OC)c(C(=O)NOC)cc23)cc1Cl [Compound 4, N6-Methoxy-4-(3-chloro-4-(((ethylamino)carbonyl)amino)phenoxy)-7-methoxy-6-quinolinecarboxamide]

- phosphorylated c-Kit in tumor tissue (c-Kit kinase [3]; 160 mg/kg): partially inhibited phosphorylation
Compound: Cc1ccc(NC(=O)c2ccc(CN3CCN(C)CC3)cc2)cc1Nc1nccc(-c2cccnc2)n1 [STI571, reference compound]
- anti-tumor effect on nude mouse transplanted H-526 tumor (H-526 tumor; 160 mg/kg): little anti-tumor effect
